Assay results from patent US12667103B2, “Methods and compositions comprising herbicidally active compounds and thiocyanate compounds for controlling weed growth” (MUSTGROW BIOLOGICS CORP., priority 2020, dated 2026).

System: weed plants
Assay: Field trial of weed control: individual weed plants counted on test plots after herbicide treatment
Assay type: in vivo
Conditions: for Incidence of weeds (average count of weed plants per test plot): MustGrow SCN 24.3 kg/acre
Protocol: A total of 8 herbicide treatments were run in a field trial as follows:
RT540®, Bayer CropScience contains 540 g/L of glyphosate as the active ingredient. MustGrow SCN consists of pure commercially purchased thiocyanate in powder form. RT540 and MustGrow SCN were diluted with 10 parts of water and applied using a backpack sprayer to each of the test plots located in central Saskatchewan at the rate indicated in Table 2. Each treatment consisted of triplicate experimental plots (4×20 ft). Weed plant growth was monitored by counting individual weed plants present on each of the test plots over a period of 5 weeks from application.

Row | Molecule | Effectiveness in limiting the incidence of weeds, in words (under the conditions of this trial, RT540 0.1-1 L/acre) | Incidence of weeds (average count of weed plants per test plot) (week 1) | Incidence of weeds (average count of weed plants per test plot) (week 2) | Incidence of weeds (average count of weed plants per test plot) (week 3) | Incidence of weeds (average count of weed plants per test plot) (week 4) | Incidence of weeds (average count of weed plants per test plot) (week 5)
1 | O=C(O)CNCP(=O)(O)O [glyphosate, N-(phosphomethyl)glycine, reference compound] | marginally effective |  |  |  |  | 
2 | thiocyanate [MustGrow SCN] |  | 8 | 15 | 75 | 155 | 174
